Test results reported in US20240391930A1, “SPIROCYCLIC BICYCLIC MODULATORS OF CHOLESTEROL BIOSYNTHESIS AND THEIR USE FOR PROMOTING REMYELINATION” (GENENTECH, INC., priority 2021, published 2024).

Assays:
[1] = target: T1, human emopamil binding protein and human 7-dehydrocholesterol reductase (hEBP-DHCR7) (Homo sapiens, UniProt Q15125); experiment: hEBP-DHCR7 radioligand filtration binding assay; settings: membranes of HEK293 co-expressing hEBP and DHCR7; [3H] 2-thia-6-azaspiro[3.4]octane radioligand; 8 doses 0.06 to 5000 nM
T1 construct: expressed in transfected cells; host or cells: HEK 293 cells, transient transfection with 2 DNA constructs
Summary of the method: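 Membranes from HEK293 cells transiently co-expressing human EBP and DHCR7 (10 μg/well) incubated 3 h at 22 °C with tritiated 2-thia-6-azaspiro[3.4]octane dioxide radioligand (25 nM stock addition) and compound at 0.06–5000 nM final. Bound ligand collected on PEI-treated GF/B filters, scintillation-counted. IC50 by Hill fit; reported as Ki.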

[2] = test system: zymostenol accumulation in EpiSC-derived OPCs (EBP); experiment: GC/MS-based sterol profiling (zymostenol accumulation); assay type: cell-based; settings: Mus musculus, 24 hours, 8 doses from 0.15 nM to 333 nM, read-out: Zymostenol GCMS EC50
Summary of the method: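 Zymostenol level is expressed relative to that after 24 h with 100 nM positive-control reference, measured by full-scan GC/MS (m/z 458) with cholesterol-d7 internal standard after BSTFA derivatisation. Cells were EpiSC-derived OPCs, 100,000/well in N2B27 without growth factors, treated 24 h, from two or more independent platings.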

EpiSC-derived OPCs = experiment: In vitro phenotypic screening of OPCs (MBP high-content imaging); assay type: cell-based; settings: Mus musculus, 72 h; percentage of MBP-positive oligodendrocytes, 3 days, 0.5 nM to 1000 nM; read-out: OPC EC50
Description: To assess effects of treatments on OPCs, all treatments were assayed in two or more independent platings of epiblast stem cell-derived OPCs (EpiSC). EpiSC-derived OPCs were obtained using in vitro differentiation protocols and culture conditions described previously (Najm et al, 2011, Nature Methods). OPCs were expanded and frozen down in aliquots. OPCs were thawed into growth conditions for at least one passage before use in further assays.
EpiSC-derived OPCs were grown and expanded in poly-L-ornithine (PO) and laminin-coated flasks in N2B27 media (DMEM/F12 (Gibco), N2-MAX (R&D Systems), B-27 (ThermoFisher), and GlutaMax (Gibco)) supplemented with FGF2 ([…], R&D systems, 233-FB-025) and PDGF-AA ([…], R&D systems, 233-AA-050) before harvesting for experiments. The cells were seeded onto poly-L-ornithine or poly-D-lysine coated CellCarrier Ultra plates (PerkinElmer) coated with laminin (Sigma, L2020) at a density of 150,000/cm^2 in N2B27 media without growth factors. For dose-response testing, a 1000× compound stock in dimethyl sulphoxide (DMSO) was added to assay plates, resulting in 8-point dose curves with final concentrations between 1000 nM and 0.5 nM. Positive controls and DMSO vehicle controls were included in each assay plate. Cells were incubated under standard conditions (37° C., 5% CO2) for 3 days and fixed with 4% paraformaldehyde (PFA) in phosphate buffered saline (PBS) for 20 min. Fixed plates were washed with PBS, permeabilized with 0.1% Triton X-100, and blocked with 10% donkey serum (v/v) in PBS for 40 min. Then, cells were labelled with MBP antibodies (Abcam, ab7349; 1:200) for 2 h at room temperature, washed with PBS, and stained with Alexa Fluor conjugated secondary antibodies (1:500) for 45 min. Nuclei were visualized by DAPI staining (Sigma; 1 μg/ml), followed by further PBS washes.
Cells and cell culture plates were imaged on the Operetta High Content Imaging and Analysis system (PerkinElmer). Analysis (PerkinElmer Harmony and Columbus software) began by identifying intact nuclei stained by DAPI. The peri-nuclear region of each cell was then cross-referenced with the […] (MBP) stain to identify oligodendrocyte nuclei, and from this the percentage of oligodendrocytes was calculated.

T1 sequence (Q15125 whole entry): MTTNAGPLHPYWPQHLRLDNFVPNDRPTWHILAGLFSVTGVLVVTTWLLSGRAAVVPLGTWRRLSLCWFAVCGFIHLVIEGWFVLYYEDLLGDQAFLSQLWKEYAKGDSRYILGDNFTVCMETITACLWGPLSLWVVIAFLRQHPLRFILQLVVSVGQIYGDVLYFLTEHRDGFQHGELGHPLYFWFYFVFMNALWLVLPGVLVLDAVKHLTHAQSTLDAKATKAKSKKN

Row | Ki [1] [nM] | EC50 [2] [nM] | EC50 (EpiSC-derived OPCs) [nM] | Structure (SMILES)
1 | 11.7 | 6.4 | 37 | CC(C)n1nc(-c2cccc(C(F)(F)F)c2)nc1[C@H]1[C@@H]2C[C@@H](N3CCC4(C3)CS(=O)(=O)C4)C[C@@H]21 [Compound 51, 6-((1R,3s,5S,6r)-6-(1-Isopropyl-3-(3-(trifluoromethyl)phenyl)-1H-1,2,4-triazol-5-yl)bicyclo[3.1.0]hexan-3-yl)-2-thia-6-azaspiro[3.4]octane 2,2-dioxide]
2 | 59.1 | 32 | 92 | CCn1nc(-c2ccccn2)cc1[C@H]1[C@@H]2C[C@H](N3CCC4(C3)CS(=O)(=O)C4)C[C@@H]21 [Compound 73, 6-((1R,3r,5S,6r)-6-(1-ethyl-3-(pyridin-2-yl)-1H-pyrazol-5-yl)bicyclo[3.1.0]hexan-3-yl)-2-thia-6-azaspiro[3.4]octane 2,2-dioxide]
3 | 21.6 | 10.6 | 102 | CC(C)n1nc(C2CCC(F)(F)CC2)cc1[C@H]1[C@@H]2C[C@@H](N3CCC4(C3)CS(=O)(=O)C4)C[C@@H]21 [Compound 108, 6-((1R,3s,5S,6r)-6-(3-(4,4-Difluorocyclohexyl)-1-isopropyl-1H-pyrazol-5-yl)bicyclo[3.1.0]hexan-3-yl)-2-thia-6-azaspiro[3.4]octane 2,2-dioxide]
